In patent US8101745B2, “Lung-targeted drugs” (priority 2004, dated 2012):
pEC50: −log10 of the molar value. Where “and” joins values, the source holds several entries; their conditions need not be identical. Equal values may be shown once. Read-outs that look alike come from different tables or passages of the source.

How the values were obtained:
ectromelia virus [1] = settings: mouse, in vivo, po, cited from earlier work
[2] = in vivo; cited from earlier work
Vaccinia Copenhagen [3] = settings: cited from earlier work; for pEC50: Vaccinia Copenhagen, effective dose 50%
Cowpox Brighton [4] = assay type: cell-based
Vaccinia Copenhagen [5] = assay type: cell-based
Cowpox Brighton [6] = settings: cited from earlier work
[7] = toxic dose 50%; read-out: TC50 (the source's name); cited from earlier work
[8] = Oral pharmacokinetics of 14C-labeled drug, liver and lung levels in mice; settings: for AUC 14C-Drug Liver / AUC 14C-Drug Lung / Ratio Lung/Liver / Ratio Liver/Lung: 10 mg/kg single oral dose, 0 to 72 hours; for Ratio Lung/Liver / Ratio Liver/Lung: ratio of AUC
ectromelia virus [9] = system: ectromelia virus; design: species or system Female A/NCR mice; settings: mouse, in vivo, po

Row | Compound | Lung titer (ectromelia virus [1]; 10 mg/kg) | Mortality (ectromelia virus [1]; 10 mg/kg) [%] | Spleen titer (ectromelia virus [1]; 10 mg/kg) | pEC50 (Vaccinia Copenhagen [3]) | SI (Cowpox Brighton [4]) | SI (Vaccinia Copenhagen [5]) | pEC50 (Cowpox Brighton [6]) | CC50 [7] [nM] | AUC 14C-Drug Liver ([8]; mice) [nmol · gm · hrs] | AUC 14C-Drug Lung ([8]; mice) [nmol · gm · hrs] | Ratio Lung/Liver [8] | Ratio Liver/Lung ([8]; 10 mg/kg) | other results
1 | Nc1ccn(C[C@@H](CO)OCP(=O)(O)O)c(=O)n1 [CDV, cidofovir] | 3 × 10^6 pfu/ml | 100 | 3 × 10^6 pfu/ml | 4.51 | >7.5 | >10 | 4.38 | > 317000 | – | – | – | – | oral bioavailability [2]: < 6%
2 | CCCCCCCCCCCCCCCCOCCCOP(=O)(O)CO[C@H](CO)Cn1ccc(N)nc1=O [HDP-CDV, hexadecyloxypropyl-CDV] | 5 × 10^4 pfu/ml | 0 | <10^2 pfu/ml | 6.22 | 58 | 48 | 6.30 | 29000 | 1367 | 49 | 0.04 | 27.9 | Liver titer (ectromelia virus [1]; 10 mg/kg): <10^2 pfu/ml
3 | CCCCCCCCCCCCCCCCCCOC[C@H](COP(=O)(O)CO[C@H](CO)Cn1ccc(N)nc1=O)OCc1ccccc1 [ODBG-CDV, 1-O-Octadecyl-2-O-benzyl-sn-glycero-3-cidofovir] | – | – | – | 6.40 | 157 | 118 | 6.52 | 47000 | 318 | 581 | 1.82 | – | Lung levels of 14C-labeled drug ([8]; 10 mg/kg oral, mice, over 72 hours, compared with HDP-CDV or ODE-CDV (FIG. 1)): much higher; liver levels of 14C-labeled drug ([8]; 10 mg/kg oral, mice, over 72 hours, compared with HDP-CDV or ODE-CDV (FIG. 2)): lower; lung area under curve relative to alkoxyalkyl derivatives of CDV ([8]; given orally, versus non lung-targeted alkoxyalkyl derivatives): 10 fold; Ratio Liver/Lung [8]: 0.55; activity against vaccinia virus in vitro (Vaccinia Copenhagen [3]; in words): highly active; Mortality day 21 (ectromelia virus [9]): 2/10 and 0/10; protection from death (ectromelia virus [9]): provides protection from death; Mean time to death (ectromelia virus [9]; 2 mg/kg/day): 13.0 ± 1.4; activity against cowpox virus in vitro (Cowpox Brighton [6]): highly active
4 | CCCCCCCCCCCCCCCCCCOCCOP(=O)(O)CO[C@H](CO)Cn1ccc(N)nc1=O [ODE-CDV, octadecyloxyethyl-CDV] | – | – | – | 6.22 | 105 | 105 | 6.30 | 21000 | 1215 | 60 | 0.05 | 20.3 | Liver titer (ectromelia virus [1]; 5 mg/kg): <10^2 pfu/ml; Lung titer (ectromelia virus [1]; 5 mg/kg): 3 × 10^5 pfu/ml; Mortality (ectromelia virus [1]; 5 mg/kg): 0%; Spleen titer (ectromelia virus [1]; 5 mg/kg): <10^2 pfu/ml
